Tested on: M. tuberculosis H37Rv growth inhibition
Assay: M. tuberculosis H37Rv growth inhibitors, H37Rv strain (AID 1626)
Conditions: for IC90: measured here: IC90 against H37Rv; for CC50: measured here: Vero cell cytotoxicity

| Compound | IC50 | IC90 | CC50 |
| --- | --- | --- | --- |
| Cc1cccc(-c2cc3nc(C)c(C)c(NCCCn4ccnc4)n3n2)c1 | 4.54 µM | 8.03 µM | > 40 µM |
| Cc1cc(-n2c(C)cc(C(=O)COc3ccc4ccc(=O)oc4c3)c2C)no1 | 8.15 µM | > 100 µM | > 40 µM |
| COc1ccc(OCC(=O)Nc2ccc3nc(C)sc3c2)cc1 | 10.7 µM | > 100 µM |  |
| CCCCc1ccc(NC(=O)C2CCCO2)cc1 (stereo not drawn) | 1.71 µM | > 100 µM |  |
| Cc1ccc(-n2nnnc2Sc2nc([N+](=O)[O-])nn2C)cc1C | 7.23 µM | 13.2 µM | 37.6 µM |
| Brc1c(CSc2nncc3ccccc23)nc2ccccn12 | 5.58 µM | 16.3 µM | > 40 µM |
| CCCOc1cccc(-c2nn(-c3ccccc3)cc2/C=C(\C#N)C(=O)NCCCn2ccnc2)c1 | 10.9 µM | 11.9 µM | > 40 µM |
| C1=C(CCNc2ncnc3c2[nH]c2ccccc23)CCCC1 | 1.52 µM | 1.72 µM | 5.24 µM |
| N#Cc1ncc(-c2ccc3c(c2)OCCOCCOCCOCCOCCO3)nc1C#N | 1.8 µM | 3.08 µM | 22.6 µM |
| Nc1ccccc1Nc1ccccc1 | < 0.195 µM | 0.973 µM |  |
| O=C(NCc1ccco1)c1cnn2c1NC(c1ccc(Br)cc1)CC2C(F)(F)F (stereo not drawn) | 1.51 µM | 1.71 µM | > 40 µM |
| CCCCCc1cc(=O)oc2c(C(CCN3CCCCC3)c3cc(OC)c(OC)c(OC)c3)c(OC)cc(OC)c12 (stereo not drawn) | 4.18 µM | 5.62 µM | 13.7 µM |
| Cc1ccc([N+](=O)[O-])cc1NC(=O)CN(C(=O)c1ccccc1Cl)C1CCCCC1 | 3.22 µM | 5.22 µM |  |
| CSc1ccc(/C=C/C(=O)c2ccc(NC(C)=O)cc2)cc1 | 28.4 µM | > 100 µM |  |
| CNC(=O)c1nnsc1S(=O)(=O)c1ccc(Cl)cc1 | 21.6 µM | 22.2 µM | 8.55 µM |
| O=C(Oc1ccc(Cl)cc1)c1ccc(COC(=O)c2cnccn2)cc1 | 6.54 µM | 9.41 µM | > 40 µM |
| CC(C)OC(=O)CSc1ncnc2c1cnn2Cc1ccccc1 | 8.22 µM | 19 µM |  |
| Cc1ccc(C(=O)Nc2nc(C)c(C(=O)Nc3ccc4c(c3)CCC4)s2)cc1 | 2.67 µM | 5.77 µM | 7.56 µM |
| CCc1ccc(Nc2c([N+](=O)[O-])c(=O)oc3ccccc23)cc1 |  | > 100 µM | > 40 µM |
| O=C1c2ccc3c4c(ccc(c24)C(=O)N1CCCCO)C(=O)N(CCCCO)C3=O | 7.04 µM | 12.9 µM | 5.2 µM |
| Cc1cccc(-c2nsc(SCC(=O)NCc3ccc4c(c3)OCO4)n2)c1 | 7.57 µM | > 100 µM |  |

| Compound | IC50 | IC90 | CC50 |
| --- | --- | --- | --- |
| CCCCn1c(=O)c(C(=O)Nc2nnc(C(C)C)s2)c(O)c2ccccc21 | 0.767 µM | 0.841 µM | > 40 µM |
| CC1CCN(c2nc(/C=C/c3ccccc3)nc3ccccc23)CC1 | 10.1 µM | 12.8 µM | > 40 µM |
| Cc1cc(NC(=O)c2c(F)cccc2F)n(-c2nc3ccccc3[nH]2)n1 | 11.3 µM | 21.2 µM | 35.7 µM |
| CCc1ccc(Nc2nnc(SCC(=O)Nc3cccnc3Cl)s2)cc1 | 5.02 µM | 13.6 µM |  |
| CCn1c(/C=C/c2ccc([N+](=O)[O-])o2)nc2ccccc2c1=O | < 0.195 µM | 0.383 µM | 15.6 µM |
| COc1ccc(OCC(O)Cn2c(=N)n(CCN3CCCCC3)c3ccccc32)cc1 (stereo not drawn) | 6.22 µM | 6.86 µM | > 40 µM |
| Cc1ccc(C)c(-c2cc(C(=O)Nc3nccs3)c3ccccc3n2)c1 | 8.18 µM | 11.3 µM |  |
| Cc1ccc(NC(=O)c2ccc([N+](=O)[O-])o2)c(C)c1 | 6.59 µM | 11.2 µM | 13.4 µM |
| O=C(Nc1nc2ccccc2[nH]1)c1cccc([N+](=O)[O-])c1 |  | > 100 µM |  |
| CCc1ccc(NC(=O)CSc2ccccn2)cc1 | 22.1 µM | > 100 µM |  |
| Nc1ccc2cc(Br)ccc2c1 | 0.632 µM | > 100 µM |  |
| O=C(O)C1CCCCC1C(=O)Nc1ccccc1Nc1ccccc1 (stereo not drawn) |  | > 100 µM |  |
| CCOC(=O)CSc1ncnc2c1cnn2-c1ccc(C)cc1 | 10.1 µM | 22.5 µM |  |
| O=C(Nc1nnc(-c2ccccc2)o1)c1ccc(Cl)cc1 | < 0.195 µM | 95.1 µM | 34.3 µM |
| O=C(c1nnsc1S(=O)c1ccc(Cl)cc1)N1CCOCC1 (stereo not drawn) | 8.91 µM | 10.8 µM | 14.4 µM |
| COc1ccc(CCNC(=O)c2ccc(CN3CCC(Cc4ccccc4)CC3)cc2)cc1 |  | > 100 µM | > 40 µM |
| CC(C)Cn1c(N2CCN(C(=O)/C=C/c3ccccc3)CC2)nc2ccccc21 | 21.5 µM | 29.9 µM |  |
| O=C(Nc1nc2ccccc2[nH]1)C12CC3CC(CC(C3)C1)C2 | 2.25 µM | 13.1 µM | > 40 µM |
| Cc1cc(Cl)n2ncc(-c3ccccc3)c2n1 | 58.1 µM | > 100 µM | > 40 µM |
| CSc1nsc(SCC(=O)Nc2ccc(OC(C)=O)cc2)n1 | 2.56 µM | 3.79 µM |  |
